Results as given in publication PMC5176352, “Structural basis for subtype-specific inhibition of the P2X7 receptor” (eLife, 2016).
Like-named read-outs stand apart in the source and are kept apart here. Blank lines part the entries; values can stand above or below the compound they belong to.

Legend:
full length pdP2X7 = full length pdP2X7 (Ailuropoda melanoleuca, UniProt G1M6C4); assay: YO-PRO-1 uptake assay (inhibition of ATP-triggered dye uptake); type: cell-based, giant panda (Ailuropoda melanoleuca)
From the text: We further validated the drug-receptor interactions by site-directed mutagenesis on the drug-binding residues. To facilitate robust and systematic data collection, we monitored cellular uptake of the fluorescent dye, YO-PRO-1, as a proxy for receptor activity ([Surprenant et al., 1996]) (Figure 3—figure supplement 4A). […] In particular, interaction with F103 is crucial for the inhibitory action of all five drugs.
(§1) Human embryonic kidney (HEK293) cells were maintained in DMEM medium (Thermo Fisher Scientific) supplemented with 10% FBS (Atlanta Biologicals, Flowery Branch, GA), and 10 μg/mL gentamicin (Thermo Fisher Scientific). HEK293 cells were split into six well plates at a cell density of 2.0 × 10^6 cells/well and incubated overnight. […] Cells were washed with assay buffer (2 mM KCl, 0.1 mM CaCl2, 13 mM Glucose, 147 mM NaCl, 10 mM HEPES (pH 7.3)) and were incubated with 5 μM YO-PRO-1 Iodide (Thermo Fisher Scientific), in the presence or absence of antagonists at multiple concentrations at 37°C for 10 min. Upon application of 1 mM ATP (final), uptake of YO-PRO-1 was recorded with 1 min intervals by following the fluorescence change using a Synergy HT multi-detection microplate reader (Bio-Tek, Winooski, VT; Ex: 485 nm/20, Em:528 nm/20, sensitivity 60). To obtain the dose dependent uptake inhibition by antagonists, the initial rates of YO-PRO-1 uptake were plotted against multiple concentrations of the P2X7 specific drugs. The inhibition curves from five independent measurements were fitted to the Hill equation using Origin software (Originlab, Northampton, MA) to determine the IC50 values.

wildtype pdP2X7 = wildtype pdP2X7 (Ailuropoda melanoleuca, UniProt G1M6C4); assay: BzATP dose response of YO-PRO-1 uptake with antagonists, fitted with competitive / non-competitive inhibition models; type: cell-based, giant panda (Ailuropoda melanoleuca); settings: for Kb: curve fitting of BzATP dose responses
From the text: To clarify the working mechanism for each drug, we measured the dose responses of the P2X7 mediated YO-PRO-1 uptake in the presence of each drug at multiple concentrations. We used BzATP—an artificial but potent agonist of P2X7 receptors—for these experiments to achieve saturating responses in the presence of concentrated antagonist.
as §1
Dose response curves of the YO-PRO-1 uptake experiments were fitted with either competitive or non-competitive inhibition models using Origin 6.0 software (OriginLab) as previously described ([Kenakin, 2006]). For the competitive antagonism model, we used the equation: Response=[A]/KA/[A]KA(1+τ)+[B]/KB+1
where [A] , [B] are the concentrations of BzATP and antagonists, respectively; KA and KB are the equilibrium dissociation-constant of BzATP and antagonists, respectively. […] KB was then determined using the dose response curves in the presence of antagonists. […] For the non-competitive inhibition model, we used the equation: Response=([A]^nτ^nEmax)/([A]^nτ^n+([A](1+α[B]/KB)+KA[B]/KB+KA)^n
where n is the Hill coefficient, and Emax is the maximum initial rate. […] Schild regression analysis was performed as described previously ([Wyllie and Chen, 2007]). Briefly, concentrations of BzATP at half maximal initial rates of YO-PRO-1 uptake in the presence (EC50’) or absence (EC50) of antagonists were determined by fitting the dose responses with the Hill equation.

pdP2X7 = biological target: T1, pdP2X7 (Ailuropoda melanoleuca, UniProt G1M6C4); assay: Whole cell patch clamp ATP dose response
T1 sequence (G1M6C4 2-606): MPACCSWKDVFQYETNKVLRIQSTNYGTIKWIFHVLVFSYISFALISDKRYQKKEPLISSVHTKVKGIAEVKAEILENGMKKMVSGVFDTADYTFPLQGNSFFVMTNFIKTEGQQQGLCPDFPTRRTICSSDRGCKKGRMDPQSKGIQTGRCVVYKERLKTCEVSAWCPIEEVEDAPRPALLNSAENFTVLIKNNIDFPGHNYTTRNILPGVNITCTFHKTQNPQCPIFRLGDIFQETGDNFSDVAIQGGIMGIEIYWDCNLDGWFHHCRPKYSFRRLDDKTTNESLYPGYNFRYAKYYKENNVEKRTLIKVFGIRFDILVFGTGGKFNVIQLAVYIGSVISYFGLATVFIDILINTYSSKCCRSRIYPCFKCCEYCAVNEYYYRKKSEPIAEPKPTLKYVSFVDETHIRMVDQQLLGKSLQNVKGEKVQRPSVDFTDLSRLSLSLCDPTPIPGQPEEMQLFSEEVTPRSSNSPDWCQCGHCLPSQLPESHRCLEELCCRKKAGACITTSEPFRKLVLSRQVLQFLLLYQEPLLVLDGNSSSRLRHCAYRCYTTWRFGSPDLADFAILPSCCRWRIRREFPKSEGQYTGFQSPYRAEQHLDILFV

pdP2X7cryst = biological target: T2, pdP2X7cryst (Ailuropoda melanoleuca, UniProt G1M6C4, E175K/N242S/N285S/R126A/V36A); assay: Whole cell patch clamp ATP dose response
T2 sequence (G1M6C4 23-360 V36A/R126A/E175K/N242S/N285S): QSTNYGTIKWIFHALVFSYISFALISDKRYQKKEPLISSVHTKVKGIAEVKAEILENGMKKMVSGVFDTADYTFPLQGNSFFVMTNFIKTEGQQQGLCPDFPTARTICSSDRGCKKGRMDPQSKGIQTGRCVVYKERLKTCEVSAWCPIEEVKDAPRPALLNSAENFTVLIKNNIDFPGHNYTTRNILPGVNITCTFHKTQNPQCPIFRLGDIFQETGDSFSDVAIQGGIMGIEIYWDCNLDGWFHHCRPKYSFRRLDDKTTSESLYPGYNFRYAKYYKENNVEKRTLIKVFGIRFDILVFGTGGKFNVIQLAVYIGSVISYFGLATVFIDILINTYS

P2X7 receptor = biological target: P2X7 receptor; set-up: method as in Yan et al., 2010; settings: under physiological ion concentrations; ref Yan et al., 2010; read-out: EC50 for initial activation; cited from earlier work
[1] = HEK293 cells, YO-PRO-1 uptake initiated with 1 mM ATP, initial rates, wildtype, read-out: IC50
[2] = competitive model, read-out: KB (equilibrium dissociation-constant of antagonist), competitive antagonism model
[3] = non-competitive model, α = 1, read-out: KB (equilibrium dissociation-constant of antagonist), non-competitive inhibition model
[4] = KB (equilibrium dissociation-constant of antagonist), competitive antagonism model, competitive model
[5] = KB (equilibrium dissociation-constant of antagonist), non-competitive inhibition model, non-competitive model, α = 1
[6] = data without antagonists, non-competitive model equation
[7] = dose response without antagonist, competitive model equation

KA (equilibrium dissociation-constant of BzATP), non-competitive inhibition model (wildtype pdP2X7; [6]): 220 µM | n (Hill coefficient), non-competitive inhibition model (wildtype pdP2X7; [6]): 2.6 | τ, non-competitive inhibition model (wildtype pdP2X7; [6]): 10 | KA (equilibrium dissociation-constant of BzATP), competitive antagonism model (wildtype pdP2X7; [7]): 28 µM | τ, competitive antagonism model (wildtype pdP2X7; [7]): 0.031
Structure (SMILES): Nc1ncnc2c1ncn2[C@@H]1O[C@H](COP(=O)(O)OP(=O)(O)OP(=O)(O)O)[C@@H](OC(=O)c2ccc(C(=O)c3ccccc3)cc2)[C@H]1O [BzATP]

IC50 (full length pdP2X7): 8.9 µM | Kb (wildtype pdP2X7; [4]): 3 µM | Kb (wildtype pdP2X7; [5]): 266 µM
Structure (SMILES): Cc1ccc(CN2CCNCC2)cc1NC(=O)CNc1ccc(F)c(F)c1 [GW791343]

IC50 (full length pdP2X7): 0.0119 µM | Kb (wildtype pdP2X7; [4]): 0.0017 µM | Kb (wildtype pdP2X7; [5]): 0.14 µM
Structure (SMILES): O=C(NCC1(N2CCN(c3ccccc3)CC2)CCOCC1)c1cccnc1Sc1ccccc1 [JNJ47965567]

The remaining lines, values behind:

Structure (SMILES): COc1ccc(CC(=O)NC(N/C(=N/C#N)Nc2cccc3ncccc23)C(C)(C)C)cc1OC (centres unmarked) [A740003, N-(1-{[(cyanoimino)(5-quinolinylamino)methyl]amino}-2,2-dimethylpropyl)-2-(3,4-dimethoxyphenyl)acetamide]
IC50 (full length pdP2X7; [1]): 0.0693 µM | Kb (wildtype pdP2X7; [2]): 0.024 µM | Kb (wildtype pdP2X7; [3]): 1.2 µM

Structure (SMILES): C[C@H](N/C(=N/C#N)Nc1cccc2ncccc12)c1ccccc1 [A804598, 2-cyano-1-[(1S)-1-phenylethyl]-3-quinolin-5-ylguanidine]
IC50 (full length pdP2X7; [1]): 0.0217 µM | Kb (wildtype pdP2X7; [2]): 0.015 µM | Kb (wildtype pdP2X7; [3]): 0.57 µM

Structure (SMILES): Nc1ncnc2c1ncn2[C@@H]1O[C@H](COP(=O)(O)OP(=O)(O)OP(=O)(O)O)[C@@H](O)[C@H]1O [ATP, adenosine triphosphate]
EC50 (pdP2X7): 122 µM | EC50 (pdP2X7cryst): 40 µM | EC50 (P2X7 receptor): ≥ 1000 µM

Structure (SMILES): O=C(CC12CC3CC(CC(C3)C1)C2)Nc1cccc2nc(NCCNCCO)ccc12 [AZ10606120]
IC50 (full length pdP2X7): 0.231 µM | Kb (wildtype pdP2X7; [4]): 0.056 µM | Kb (wildtype pdP2X7; [5]): 3.4 µM
